Results as given in US7498341B2, “Heterocyclically substituted 7-amino-4-quinolone-3-carboxylic acid derivatives, process for their preparation and their use as medicaments” (Sanofi Aventis Deutschland GmbH, priority 2004, dated 2009).

Biological target: T1, human glycogen phosphorylase a (Homo sapiens, UniProt P06737)
T1 sequence (P06737 2-847 limits assumed): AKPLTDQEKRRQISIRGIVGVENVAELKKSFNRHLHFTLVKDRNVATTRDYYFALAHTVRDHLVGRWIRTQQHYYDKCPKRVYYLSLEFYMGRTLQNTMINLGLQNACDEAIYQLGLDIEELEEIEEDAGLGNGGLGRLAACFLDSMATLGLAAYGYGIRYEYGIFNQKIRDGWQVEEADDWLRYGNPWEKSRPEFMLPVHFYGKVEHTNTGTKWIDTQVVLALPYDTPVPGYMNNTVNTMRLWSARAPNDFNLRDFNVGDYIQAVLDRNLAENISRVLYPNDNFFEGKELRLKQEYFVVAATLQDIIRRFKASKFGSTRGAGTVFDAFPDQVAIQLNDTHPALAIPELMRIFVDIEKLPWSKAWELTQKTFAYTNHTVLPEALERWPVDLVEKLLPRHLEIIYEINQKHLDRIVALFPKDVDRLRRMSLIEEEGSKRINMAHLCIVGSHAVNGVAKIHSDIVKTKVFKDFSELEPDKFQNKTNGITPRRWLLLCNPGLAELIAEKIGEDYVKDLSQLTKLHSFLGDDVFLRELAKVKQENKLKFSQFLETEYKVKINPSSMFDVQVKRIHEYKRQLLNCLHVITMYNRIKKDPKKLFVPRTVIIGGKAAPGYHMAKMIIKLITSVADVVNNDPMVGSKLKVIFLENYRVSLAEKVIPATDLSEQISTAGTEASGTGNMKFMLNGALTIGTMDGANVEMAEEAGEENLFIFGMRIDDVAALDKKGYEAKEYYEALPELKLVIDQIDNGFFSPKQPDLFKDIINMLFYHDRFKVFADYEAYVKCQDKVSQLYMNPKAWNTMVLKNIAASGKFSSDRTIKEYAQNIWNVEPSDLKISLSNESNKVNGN
Assay: Glycogen phosphorylase a activity assay (reverse direction, liberation of inorganic phosphate)
Format: biochemical
Conditions: 10 μM test substance; in vitro inhibition of glycogen phosphorylase a
Description: Glycogen phosphorylase a Activity Assay
All the reactions were carried out as duplicate determinations in microtiter plates with 96 wells (Half Area Plates, Costar No 3696), measuring the change in absorption owing to the formation of the reaction product at the wavelength specified hereinafter in a Multiskan Ascent Elisa Reader (Lab Systems, Finland).
In order to measure the GPa enzymic activity in the reverse direction, the general method of Engers et al. (Engers H D, Shechosky S, Madsen N B, Can J Biochem 1970 July; 48(7):746-754) was used to measure the conversion of glucose 1-phosphate into glycogen and inorganic phosphate, with the following modifications: human glycogen phosphorylase a (for example with 0.76 mg of protein/ml (Aventis Pharma Deutschland GmbH), dissolved in buffer solution E (25 mM β-glycerophosphate, pH 7.0, 1 mM EDTA and 1 mM dithiothreitol) was diluted with buffer T (50 mM Hepes, pH 7.0, 100 mM KCl, 2.5 mM EDTA, 2.5 mM MgCl2.6H2O) and addition of 5 mg/ml glycogen to a concentration of 10 μg of protein/ml. […] The baseline glycogen phosphorylase a activity in the absence of test substance was determined by adding 10 μl of buffer solution T (0.1% DMSO). […] After incubation at 45° C. for 60 minutes, the absorption at 820 nm was measured. […]

Cc1ccc(C)n1Nc1cc2c(=O)c(C(=O)O)cn(Cc3ccccc3)c2cc1Cl [Example 42, 1-Benzyl-7-chloro-6-(2,5-dimethylpyrrol-1-ylamino)-4-oxo-1,4-dihydroquinolone-3-carboxylic acid]
% inhibition at 10 μM: 101%

CCn1cc(C(=O)OCOC(=O)C(C)(C)C)c(=O)c2cc(Nn3c(C)ccc3C)c(Cl)cc21 [Example 53, 2,2-Dimethylpropionyloxymethyl 7-chloro-6-(2,5-dimethylpyrrol-1-ylamino)-1-ethyl-4-oxo-1,4-dihydroquinolone-3-carboxylate]
% inhibition at 10 μM: 93%
